Laboratory results: patent publication US20260365646A1, “AKT1 MODULATORS” (Alterome Therapeutics, Inc., priority 2022, published 2026)

These compounds were tested against T1, full length AKT E17K (Homo sapiens, UniProt P31749, E17K) (assay: NanoBRET Target Engagement (TE) Intracellular Kinase Assay). Details: not given.
T1 construct: host or cells: HEK-293 (ATCC CRL-1573)
Type: cell-based
Excerpt: The NanoBRET™ Target Engagement (TE) Intracellular Kinase Assays are based on the NanoBRET™ System (Promega Corporation), an energy transfer technique designed to measure molecular proximity in living cells. The NanoBRET™ TE Assays measure the apparent affinity of test compounds by competitive displacement of the NanoBRET™ tracer compound, which is a cell permeable molecule engineered to be reversibly bound to a NanoLuc® luciferase-kinase fusion expressed in cells. For compound screening, when a test compound binds to the selected kinase, the BRET signal is attenuated. […] All cells were evaluated for viability prior to transfection and optimization of the transfection was done prior to experimentation. […] Following transfection, cells were washed and resuspended in Opti-MEM. NanoBRET assays were performed in white, 384-well plates (Corning) at a density of 2×10^5 cells/well. All example compounds were prepared as concentrated stock solutions in DMSO (Sigma-Aldrich). Compounds are dissolved in DMSO to make 10 mM stock solution. […] A Labcyte ECHO 550 compound dispenser was used to facilitate compound transfer directly to cells. Cells were equilibrated for 2 hr with energy transfer probes and example compound prior to BRET measurements. […] For target engagement analysis, the energy transfer probes were added to the cells at concentrations optimized for the target in question (AKT E17K). Following compound incubation, NanoBRET NanoGlo Substrate (Promega Cat #Ni57D) and Extracellular Nanoluc Inhibitor (Promega Cat #N235C) was added according to the manufacturer's recommended protocol, and luminescence was measured on Envision Reader (Perkin Elmer) Multimode Luminometer equipped with 450 nm BPfilter (donor) and 600 nm LPfilter (acceptor), using 0.5 s integration time. Milli-BRET units (mBU) are calculated by multiplying the raw BRET values by 1000. Apparent tracer affinity values (EC50) were determined using the sigmoidal dose-response (variable slope). Competitive displacement data were then plotted and data were fit to determine the EC50 value for each example compound.

T1 sequence (P31749 whole entry E17K): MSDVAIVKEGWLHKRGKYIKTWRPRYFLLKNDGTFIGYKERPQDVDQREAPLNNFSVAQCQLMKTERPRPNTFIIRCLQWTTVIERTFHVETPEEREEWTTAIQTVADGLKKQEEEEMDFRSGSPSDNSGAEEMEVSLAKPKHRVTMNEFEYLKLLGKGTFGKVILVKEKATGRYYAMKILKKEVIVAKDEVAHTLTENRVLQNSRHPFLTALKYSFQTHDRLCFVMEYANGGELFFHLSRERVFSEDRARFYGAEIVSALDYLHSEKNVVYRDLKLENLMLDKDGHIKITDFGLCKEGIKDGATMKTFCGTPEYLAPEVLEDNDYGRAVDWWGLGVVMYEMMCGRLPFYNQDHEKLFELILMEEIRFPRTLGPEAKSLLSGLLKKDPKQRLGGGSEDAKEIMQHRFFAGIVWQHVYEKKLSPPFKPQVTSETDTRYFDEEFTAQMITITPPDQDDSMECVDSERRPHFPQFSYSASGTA

| EC50 | SMILES |
| --- | --- |
| 0.06 to 0.6 µM | Nc1ncccc1-c1nc2ccc(-c3ccccc3)nc2n1-c1ccc(CN2CCC(Nc3c(OC4CCCC4)c(=O)c3=O)CC2)cc1 [Example 14, 3-((1-(4-(2-(2-Aminopyridin-3-yl)-5-phenyl-3H-imidazo[4,5-b]pyridin-3-yl)benzyl)piperidin-4-yl)amino)-4-(cyclopentyloxy)cyclobut-3-ene-1,2-dione] |
| 0.015 to 0.06 µM | COc1c(N2CCC3(CCN(Cc4ccc(-n5c(-c6cccnc6N)nc6ccc(-c7ccccc7)nc65)cc4)CC3)CC2)c(=O)c1=O [Example 99, 3-(9-(4-(2-(2-aminopyridin-3-yl)-5-phenyl-3H-imidazo[4,5-b]pyridin-3-yl)benzyl)-3,9-diazaspiro[5.5]undecan-3-yl)-4-methoxycyclobut-3-ene-1,2-dione] |
| 0.015 to 0.06 µM | COc1c(N2CCCC3(CCN(Cc4ccc(-n5c(-c6cccnc6N)nc6ccc(-c7ccccc7)nc65)cc4)CC3)C2)c(=O)c1=O [Example 31, 3-(9-(4-(2-(2-Aminopyridin-3-yl)-5-phenyl-3H-imidazo[4,5-b]pyridin-3-yl)benzyl)-2,9-diazaspiro[5.5]undecan-2-yl)-4-methoxycyclobut-3-ene-1,2-dione] |
| 0.015 to 0.06 µM | [2H]C([2H])([2H])Oc1c(N2CCN(Cc3ccc(-n4c(-c5cccnc5N)nc5ccc(-c6ccccc6)nc54)cc3)CC2)c(=O)c1=O [Example 23, 3-(4-(4-(2-(2-Aminopyridin-3-yl)-5-phenyl-3H-imidazo[4,5-b]pyridin-3-yl)benzyl)piperazin-1-yl)-4-(methoxy-d3)cyclobut-3-ene-1,2-dione] |
| 0.015 to 0.06 µM | COc1c(N2C[C@H]3CN(Cc4ccc(-n5c(-c6cccnc6N)nc6ccc(-c7ccccc7)nc65)cc4)C[C@H]3C2)c(=O)c1=O [Example 86, 3-((3aR,6aS)-5-(4-(2-(2-aminopyridin-3-yl)-5-phenyl-3H-imidazo[4,5-b]pyridin-3-yl)benzyl)hexahydropyrrolo[3,4-c]pyrrol-2(1H)-yl)-4-methoxycyclobut-3-ene-1,2-dione] |
| > 0.6 µM | Nc1ncccc1-c1nc2ccc(-c3ccccc3)nc2n1-c1ccc(CN2CCC(Nc3c(O)c(=O)c3=O)CC2)cc1 [Example 18, 3-((1-(4-(2-(2-Aminopyridin-3-yl)-5-phenyl-3H-imidazo[4,5-b]pyridin-3-yl)benzyl)piperidin-4-yl)amino)-4-hydroxycyclobut-3-ene-1,2-dione] |
| 0.06 to 0.6 µM | CCOc1c(N2CCN(Cc3ccc(-n4c(-c5cccnc5N)nc5ccc(-c6ccccc6)nc54)cc3)CC2)c(=O)c1=O [Example 24, 3-(4-(4-(2-(2-Aminopyridin-3-yl)-5-phenyl-3H-imidazo[4,5-b]pyridin-3-yl)benzyl)piperazin-1-yl)-4-ethoxycyclobut-3-ene-1,2-dione] |
| 0.015 to 0.06 µM | CC(C)Oc1c(NC2CCN(Cc3ccc(-n4c(-c5cccnc5N)nc5ccc(-c6ccccc6)nc54)cc3)CC2)c(=O)c1=O [Example 11, 3-((1-(4-(2-(2-aminopyridin-3-yl)-5-phenyl-3H-imidazo[4,5-b]pyridin-3-yl)benzyl)piperidin-4-yl)amino)-4-isopropoxycyclobut-3-ene-1,2-dione] |
| > 0.6 µM | CC(C)Oc1c(N2CCN(Cc3ccc(-n4c(-c5cccnc5N)nc5ccc(-c6ccccc6)nc54)cc3)CC2)c(=O)c1=O [Example 25, 3-(4-(4-(2-(2-Aminopyridin-3-yl)-5-phenyl-3H-imidazo[4,5-b]pyridin-3-yl)benzyl)piperazin-1-yl)-4-isopropoxycyclobut-3-ene-1,2-dione] |
| 0.06 to 0.6 µM | Nc1ncccc1-c1nc2ccc(-c3ccccc3)nc2n1-c1ccc(CN2CCC(N3CCCSc4c3c(=O)c4=O)CC2)cc1 [Example 85, 6-(1-(4-(2-(2-aminopyridin-3-yl)-5-phenyl-3H-imidazo[4,5-b]pyridin-3-yl)benzyl)piperidin-4-yl)-2-thia-6-azabicyclo[5.2.0]non-1(7)-ene-8,9-dione] |
| 0.015 to 0.06 µM | COc1c(N2CCN(Cc3ccc(-n4c(-c5cccnc5N)nc5ccc(-c6cccc(NC(C)=O)c6)nc54)cc3)CC2)c(=O)c1=O [Example 7, N-(3-(2-(2-Aminopyridin-3-yl)-3-(4-((4-(2-methoxy-3,4-dioxocyclobut-1-en-1-yl)piperazin-1-yl)methyl)phenyl)-3H-imidazo[4,5-b]pyridin-5-yl)phenyl)acetamide] |
| > 0.6 µM | COc1c(NC2CCN(C(=O)c3ccc(-n4c(-c5cccnc5N)nc5ccc(-c6ccccc6)nc54)cc3)CC2)c(=O)c1=O [Example 28, 3-((1-(4-(2-(2-Aminopyridin-3-yl)-5-phenyl-3H-imidazo[4,5-b]pyridin-3-yl)benzoyl)piperidin-4-yl)amino)-4-methoxycyclobut-3-ene-1,2-dione] |

Same assay, conditions: read-out: NanoBRET AKT1E17K EC50; HEK-293 cells transfected with NanoLuc-AKT E17K; competitive displacement of NanoBRET tracer; 2 hr equilibration; 10-point 3-fold dilution

| EC50 | SMILES |
| --- | --- |
| < 0.015 µM | COc1c(N2CC3CCC(C2)N3Cc2ccc(-n3c(-c4cccnc4N)nc4ccc(-c5ccccc5)nc43)cc2)c(=O)c1=O [Example 71, 3-(8-(4-(2-(2-aminopyridin-3-yl)-5-phenyl-3H-imidazo[4,5-b]pyridin-3-yl)benzyl)-3,8-diazabicyclo[3.2.1]octan-3-yl)-4-methoxycyclobut-3-ene-1,2-dione] |
| < 0.015 µM | COc1c(NC2CCN(Cc3ccc(-n4c(-c5cccnc5N)nc5ccc(-c6cccc(NC(C)=O)c6)nc54)cc3)CC2)c(=O)c1=O [Example 8, N-(3-(2-(2-Aminopyridin-3-yl)-3-(4-((4-((2-methoxy-3,4-dioxocyclobut-1-en-1-yl)amino)piperidin-1-yl)methyl)phenyl)-3H-imidazo[4,5-b]pyridin-5-yl)phenyl)acetamide] |
| < 0.015 µM | COc1c(N2CCC3(CCN(Cc4ccc(-n5c(-c6cccnc6N)nc6ccc(-c7ccccc7)nc65)cc4)C3)C2)c(=O)c1=O (stereo not shown) [Example 56, 3-(7-(4-(2-(2-Aminopyridin-3-yl)-5-phenyl-3H-imidazo[4,5-b]pyridin-3-yl)benzyl)-2,7-diazaspiro[4.4]nonan-2-yl)-4-methoxycyclobut-3-ene-1,2-dione] |
| < 0.015 µM | [2H]C([2H])([2H])N(c1c(OC)c(=O)c1=O)C1CCN(Cc2ccc(-n3c(-c4cccnc4N)nc4ccc(-c5ccccc5)nc43)cc2)CC1 [Example 100, 3-((1-(4-(2-(2-aminopyridin-3-yl)-5-phenyl-3H-imidazo[4,5-b]pyridin-3-yl)benzyl)piperidin-4-yl)(methyl-d3)amino)-4-methoxycyclobut-3-ene-1,2-dione] |
| < 0.015 µM | CCSc1c(N2C[C@H]3CN(Cc4ccc(-n5c(-c6cccnc6N)nc6ccc(-c7ccccc7)nc65)cc4)C[C@H]3C2)c(=O)c1=O [Example 88, 3-((3aR,6aS)-5-(4-(2-(2-aminopyridin-3-yl)-5-phenyl-3H-imidazo[4,5-b]pyridin-3-yl)benzyl)hexahydropyrrolo[3,4-c]pyrrol-2(1H)-yl)-4-(ethylthio)cyclobut-3-ene-1,2-dione] |
| < 0.015 µM | COc1c(N(CCO)C2CCN(Cc3ccc(-n4c(-c5cccnc5N)nc5ccc(-c6ccccc6)nc54)cc3)CC2)c(=O)c1=O [Example 48, 3-((1-(4-(2-(2-Aminopyridin-3-yl)-5-phenyl-3H-imidazo[4,5-b]pyridin-3-yl)benzyl)piperidin-4-yl)(2-hydroxyethyl)amino)-4-methoxycyclobut-3-ene-1,2-dione] |
| < 0.015 µM | CCN(c1c(SC)c(=O)c1=O)C1CCN(Cc2ccc(-n3c(-c4cccnc4N)nc4ccc(-c5ccccc5)nc43)cc2)CC1 [Example 92, 3-((1-(4-(2-(2-aminopyridin-3-yl)-5-phenyl-3H-imidazo[4,5-b]pyridin-3-yl)benzyl)piperidin-4-yl)(ethyl)amino)-4-(methylthio)cyclobut-3-ene-1,2-dione] |
